Some test systems named below: RPMI-8226 leukemia; SNB-19 CNS; HT29 colon; U251 CNS; OVCAR-4 ovarian; M14 melanoma; ACHN renal; K-562 leukemia; HCT-15 colon; TK-10 renal.
Holding throughout (assay): NCI tumour cell line growth inhibition, 48 h

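The compound was tested at five concentrations on cells cultured in 96-well plates, with a 48-hour exposure period. Abbreviation: GI50, concentration required for 50% inhibition of growth. Definition used: TGI = concentration required for complete inhibition of growth.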

Turning to `NC(=S)N/N=C(\C(=O)Nc1cccc([N+](=O)[O-])c1)c1nc2ccc([N+](=O)[O-])cc2[nH]c1=O`, the TGI in the assay on RPMI-8226 leukemia, in the assay on SNB-19 CNS, in the assay on HT29 colon, in the assay on U251 CNS, with OVCAR-4 ovarian and in the assay with M14 melanoma was greater than 100 µM each time. The TGI in the assay on ACHN renal, in the assay on K-562 leukemia, in the assay on HCT-15 colon and with TK-10 renal was greater than 100 µM each time.
Regarding `CCC[CH2][Sn]([CH2]CCC)([O]C(=O)C(N)CSC)[O]C(=O)C(N)CSC` (stereo not drawn), the GI50 was 2.16 µM in the assay on RPMI-8226 leukemia; 12.1 µM in the assay on SNB-19 CNS; 17.2 µM with HT29 colon; 11.3 µM in the assay with U251 CNS; 13 µM with OVCAR-4 ovarian; 10.5 µM with M14 melanoma. The GI50 with ACHN renal is 12.3 µM; in the assay with K-562 leukemia it was 0.846 µM; with HCT-15 colon, 11.6 µM; with TK-10 renal, 9.03 µM. In addition, the TGI is 7.58 µM in the assay on RPMI-8226 leukemia; 24.6 µM in the assay with SNB-19 CNS; 44.7 µM in the assay with HT29 colon; 25.1 µM in the assay with U251 CNS; 26.1 µM in the assay on OVCAR-4 ovarian; 16.2 µM in the assay on M14 melanoma. Also, the TGI with ACHN renal was 30.2 µM; in the assay on K-562 leukemia it was 7.81 µM; with HCT-15 colon, 25.4 µM; in the assay on TK-10 renal it was 21.5 µM.
As for `Cc1cccc(C)c1NC(=O)CCc1nnc2s/c(=C\c3ccc(Cl)cc3)c(=O)n12`, the TGI in the assay on RPMI-8226 leukemia, in the assay with SNB-19 CNS, in the assay with HT29 colon, in the assay with U251 CNS, with OVCAR-4 ovarian and with M14 melanoma was greater than 100 µM in each case. Besides, the TGI in the assay on ACHN renal was greater than 100 µM; in the assay with K-562 leukemia it was greater than 100 µM; in the assay with HCT-15 colon, 36.2 µM; in the assay with TK-10 renal, greater than 100 µM.
Take `COC(=O)c1c2c(c(C)[n+]([O-])c1C)C(=O)C=C(NCc1ccc(OC)cc1)C2=O`: the GI50 in the assay with RPMI-8226 leukemia is 2.03 µM; in the assay with SNB-19 CNS, 2.12 µM; in the assay on HT29 colon, 1.2 µM; in the assay on U251 CNS, 2.05 µM; in the assay on OVCAR-4 ovarian, 0.655 µM; in the assay on M14 melanoma it was 1.92 µM. Further, the GI50 was 1.98 µM with ACHN renal, 2.68 µM with K-562 leukemia, 0.962 µM with HCT-15 colon and 8.3 µM in the assay with TK-10 renal. In addition, the TGI was 9.26 µM in the assay on RPMI-8226 leukemia; 5.58 µM in the assay with SNB-19 CNS; greater than 36.7 µM in the assay on HT29 colon; 5.48 µM with U251 CNS; 1.79 µM with OVCAR-4 ovarian; 4.3 µM with M14 melanoma. For the same compound, the TGI in the assay on ACHN renal was found to be 5.23 µM; in the assay with K-562 leukemia, 15.3 µM; in the assay with HCT-15 colon, 4.19 µM; in the assay on TK-10 renal, 25.8 µM.
Turning to `COc1ccc(-c2nc3ncccn3c2/C=C/C(=O)c2cc(OC)c(OC)c(OC)c2)cc1`, the GI50 is 2.21 µM in the assay on RPMI-8226 leukemia; 3.01 µM with SNB-19 CNS; 2.19 µM with HT29 colon; 1.29 µM with U251 CNS; 2.91 µM with OVCAR-4 ovarian; 1.53 µM in the assay on M14 melanoma. Further, the GI50 was 1.57 µM with ACHN renal, 2.63 µM with K-562 leukemia, 1.38 µM with HCT-15 colon and 2.88 µM in the assay with TK-10 renal. Moreover, the TGI is greater than 100 µM in the assay with RPMI-8226 leukemia; 10.3 µM in the assay with SNB-19 CNS; 4.38 µM with HT29 colon; 4.26 µM in the assay on U251 CNS; 14.3 µM in the assay on OVCAR-4 ovarian; 3.08 µM in the assay with M14 melanoma. In addition, the TGI in the assay with ACHN renal was 3.17 µM; in the assay with K-562 leukemia it was greater than 100 µM; in the assay on HCT-15 colon it was 3.94 µM; in the assay with TK-10 renal, 10.4 µM.
On to `CC1(C)CC(n2cnc(-c3ccc(F)cc3)c2-c2ccnc(N)n2)CC(C)(C)N1`, for which the GI50 was greater than 25 µM in the assay with RPMI-8226 leukemia; greater than 25 µM with SNB-19 CNS; 11.1 µM in the assay with HT29 colon; greater than 20.1 µM in the assay with U251 CNS; 7.54 µM in the assay with OVCAR-4 ovarian; greater than 25 µM with M14 melanoma. For the same compound, the GI50 is 10.3 µM with ACHN renal, greater than 24.1 µM with K-562 leukemia, 17.7 µM in the assay with HCT-15 colon and 16.1 µM in the assay with TK-10 renal. The TGI in the assay with RPMI-8226 leukemia, with SNB-19 CNS, with HT29 colon, in the assay with U251 CNS, in the assay on OVCAR-4 ovarian and with M14 melanoma was greater than 25 µM in each case. Moreover, the TGI with ACHN renal, in the assay with K-562 leukemia, with HCT-15 colon and in the assay with TK-10 renal was greater than 25 µM each time.
In the case of `Cc1ccc(NC(=O)CC(=O)n2nc(-c3ccccc3)c(N=Nc3ccccc3Cl)c2-c2ccccc2)cc1`, the GI50 with RPMI-8226 leukemia, in the assay on HT29 colon and in the assay on HCT-15 colon was greater than 100 µM each time. The TGI was greater than 100 µM in the assay with RPMI-8226 leukemia; greater than 100 µM with SNB-19 CNS; greater than 100 µM in the assay on HT29 colon; greater than 100 µM with U251 CNS; 87.2 µM in the assay with OVCAR-4 ovarian; greater than 100 µM with M14 melanoma. In addition, the TGI with ACHN renal, in the assay on K-562 leukemia, in the assay on HCT-15 colon and with TK-10 renal was greater than 100 µM throughout.
For the compound `c1cc(OCCN2CCCCC2)ccc1CNc1ccc2nc(CCC3CCCCC3)[nH]c2c1`, the GI50 in the assay on RPMI-8226 leukemia is 1.49 µM; in the assay on SNB-19 CNS, 3.05 µM; in the assay with HT29 colon, 0.907 µM; in the assay on U251 CNS, 1.49 µM; in the assay with OVCAR-4 ovarian, 2.8 µM; with M14 melanoma it was 1.72 µM. For the same compound, the GI50 with ACHN renal was 2.2 µM; in the assay with K-562 leukemia it was 0.852 µM; with HCT-15 colon, 1.58 µM; with TK-10 renal, 2.9 µM. The TGI came to 3.71 µM in the assay on RPMI-8226 leukemia; 10.4 µM in the assay with SNB-19 CNS; 3.7 µM in the assay with HT29 colon; 2.94 µM in the assay with U251 CNS; 12.3 µM in the assay on OVCAR-4 ovarian; 3.38 µM with M14 melanoma. In addition, the TGI with ACHN renal is 5.4 µM; in the assay on K-562 leukemia, 3.6 µM; in the assay with HCT-15 colon, 3.89 µM; with TK-10 renal it was 8.26 µM.
On to `O=C(O)CC12C3C4C5C3C1C5C42` (stereo not drawn), for which the TGI in the assay with RPMI-8226 leukemia, in the assay on SNB-19 CNS, in the assay with HT29 colon, in the assay with U251 CNS, with OVCAR-4 ovarian and in the assay on M14 melanoma was greater than 100 µM in each case. The TGI with ACHN renal, with K-562 leukemia, in the assay with HCT-15 colon and with TK-10 renal was greater than 100 µM throughout.
Regarding `COC(=O)C12CC(c3ccccc31)C1C(=O)OC(=O)C12` (stereo not drawn), the TGI with RPMI-8226 leukemia, in the assay with SNB-19 CNS, in the assay on HT29 colon, in the assay on U251 CNS, with OVCAR-4 ovarian and in the assay with M14 melanoma was greater than 100 µM in each case. For the same compound, the TGI in the assay with ACHN renal, in the assay on K-562 leukemia, with HCT-15 colon and in the assay with TK-10 renal was greater than 100 µM throughout.

The values above are taken from PubChem BioAssay (NCI).
